Laboratory results published in patent US9993493B2, “Composition for prevention, amelioration or treatment of metabolic syndrome” (HOUSE WELLNESS FOODS CORPORATION, priority 2010, dated 2018).

How the values were obtained:
Format in all cases: in vivo, male KK mice
diet-induced obese mice [1] = experiment: Test Example 2: glucosyl hesperidin and caffeine mixtures (10:1, 20:1, 40:1) fed in low-calorie feed to diet-induced obese mice; details: vs control group, caffeine 0.0125 mass %, glucosyl hesperidin 0.25 mass %; for weight of subcutaneous fat tissue / weight of mesenteric (visceral) fat tissue: 2 weeks low-calorie feed; for weight of subcutaneous fat tissue: FIG. 6; for weight of mesenteric (visceral) fat tissue: FIG. 7; for changes in body weight: before and after 2 weeks low-calorie feed, FIG. 4
Source text: Under the same conditions as in Test Example 1, the effect of the composition of the present invention comprising glucosyl hesperidin and caffeine was investigated. The glucosyl hesperidin and caffeine used here were the same as in Test Example 1.
Five-week-old male KK mice were fed with water and a powder feed for breeding (CE-2 (trade name), made by CLEA Japan, Inc.) for one week, and then fed with the high-calorie feed (4.70 kcal/g) in Table 1 for 3 weeks for induction of obesity. The mice were divided into 6 groups (a control group, a caffeine administration group, a glucosyl hesperidin administration group, and mixture of caffeine and glucosyl hesperidin (present invention) administration groups, 6 to 7 mice per group) and fed with the low-calorie feed (3.16 kcal/g) in Table 1 or the low-calorie feed supplemented with the corresponding test sample for 2 weeks, in expectation of using body fat. The feeds given to the test groups are as follows. • (1) Control group; low-calorie feed • (2) Caffeine administration group; low-calorie feed+0.0125 mass % of caffeine • (3) Glucosyl hesperidin administration group; low-calorie feed+0.25 mass % of glucosyl hesperidin • (4) Mixture of glucosyl hesperidin and caffeine (10:1) administration group; low-calorie feed+(0.25 mass % of glucosyl hesperidin+0.025 mass % of caffeine) • (5) Mixture of glucosyl hesperidin and caffeine (20:1) administration group; low-calorie feed+(0.25 mass % of glucosyl hesperidin+0.0125 mass % of caffeine) • (6) Mixture of glucosyl hesperidin and caffeine (40:1) administration group; low-calorie feed+(0.25 mass % of glucosyl hesperidin+0.00625 mass % of caffeine)
During the test period (2 weeks from the start of low-calorie feeding), body weight and feed intake were periodically measured. After the end of the test, the mice were euthanized, and subcutaneous fat tissue and mesenteric (visceral) fat tissue were removed and separately weighed.
The changes in body weight before and after the test period is shown in FIG. 4, the feed intake during the first 10 days of the test period is shown in FIG. 5, the weight of subcutaneous fat tissue per 100 g of body weight is shown in FIG. 6, and the weight of mesenteric fat tissue per 100 g of body weight is shown in FIG. 7. The results are shown as Mean±SD of each group. The $, **, and * in the figures indicate a significant difference with a risk less than 10%, a risk less than 1%, and a risk less than 5% from the control, respectively.

diet-induced obese mice [2] = experiment: Test Example 1: glucosyl hesperidin and caffeine fed in low-calorie feed to diet-induced obese mice; details: vs control group, caffeine 0.025 mass %, glucosyl hesperidin 0.25 mass %, mixture 0.25+0.025 mass %; for weight of mesenteric (visceral) fat tissue: 2 weeks low-calorie feed, FIG. 3; for changes in body weight: before and after 2 weeks low-calorie feed, FIG. 1
Source text: In such a situation, the effect of the composition of the present invention comprising glucosyl hesperidin and caffeine was investigated. As the glucosyl hesperidin and caffeine, “Hayashibara Hesperidin S (trade name)” (distributor: Hayashibara Co., Ltd.) and “Chanomoto (trade name)” (purity of caffeine: 98.5%, made by Shiratori Pharmaceutical Co., Ltd.) were used, respectively.
Five-week-old male KK mice were fed with water and a powder feed for breeding (CE-2 (trade name), made by CLEA Japan, Inc.) for one week, and then fed with the high-calorie feed (4.70 kcal/g) in Table 1 shown below for 3 weeks for induction of obesity. The mice were divided into 4 groups (a control group, a caffeine administration group, a glucosyl hesperidin administration group, and a present invention administration group (caffeine+glucosyl hesperidin), 5 to 8 mice per group) and fed with the low-calorie feed (3.16 kcal/g) in Table 1 shown below or the low-calorie feed supplemented with the corresponding test sample for 2 weeks, in expectation of using body fat. The feeds given to the test groups are as follows. • (1) Control group; low-calorie feed • (2) Caffeine administration group; low-calorie feed+0.025 mass % of caffeine • (3) Glucosyl hesperidin administration group; low-calorie feed+0.25 mass % of glucosyl hesperidin • (4) Present invention (mixture of glucosyl hesperidin and caffeine (10:1)) administration group; low-calorie feed+(0.25 mass % of glucosyl hesperidin+0.025 mass % of caffeine)
During the test period (2 weeks from the start of low-calorie feeding), body weight and feed intake were periodically measured. After the end of the test, the mice were euthanized, and mesenteric (visceral) fat tissue was removed and weighed.
The changes in body weight before and after the test period is shown in FIG. 1, the feed intake during the first 10 days of the test period is shown in FIG. 2, and the weight of mesenteric fat tissue per 100 g of body weight is shown in FIG. 3. The results are shown as Mean±SD of each group. The ** and * in the figures indicate a significant difference with a risk less than 1% and a risk less than 5% from the control, respectively.

diet-induced obese mice [3] = experiment: Test Example 3: Oligonol and caffeine fed in low-calorie feed to diet-induced obese mice; details: vs control group, caffeine 0.025 mass %, Oligonol 0.1 mass %, mixture 0.1+0.025 mass %
Source text: As the polyphenol containing 15 mass % or more of proanthocyanidin having a polymerization degree of 1 to 3 and caffeine, “Oligonol (trade name)” (distributor: […] Five-week-old male KK mice were fed with water and a powder feed for breeding (CE-2 (trade name), made by CLEA Japan, Inc.) for one week, and then fed with the high-calorie feed (4.70 kcal/g) in Table 1 for 3 weeks for induction of obesity. […] The feeds given to the test groups are as follows. • (1) Control group; low-calorie feed • (2) Caffeine administration group; low-calorie feed+0.025 mass % of caffeine • (3) Oligonol administration group; low-calorie feed+0.1 mass % of Oligonol • (4) Present invention (mixture of Oligonol and caffeine (4:1)) administration group; low-calorie feed+(0.1 mass % of Oligonol+0.025 mass % of caffeine) During the test period (2 weeks from the start of low-calorie feeding), body weight and feed intake were periodically measured. After the end of the test, the mice were euthanized, and subcutaneous fat tissue, epididymal fat tissue, and mesenteric (visceral) fat tissue were removed and separately weighed. Also, at the start of the test period (the start of low-calorie feeding) and the end of the test period, plasma triglyceride level was measured. The changes in body weight before and after the test period is shown in FIG. 8, the feed intake during the first 10 days of the test period is shown in FIG. 9, the total weight of subcutaneous, epididymal, and mesenteric fat tissues per 100 g of body weight is shown in FIG. 10, and the changes in plasma triglyceride level before and after the test period is shown in FIG. 11. The results are shown as Mean±SD of each group.

| Compound | weight of subcutaneous fat tissue (diet-induced obese mice [1]) | weight of mesenteric (visceral) fat tissue (diet-induced obese mice [1]) | changes in body weight (diet-induced obese mice [1]) | weight of mesenteric (visceral) fat tissue (diet-induced obese mice [2]) | changes in body weight (diet-induced obese mice [2]) | total weight of fat tissues (subcutaneous, epididymal, and mesenteric) (diet-induced obese mice [3]; 2 weeks low-calorie feed, FIG. 10) | plasma triglyceride level measured on the 14th day (diet-induced obese mice [3]; 14th day of low-calorie feed, FIG. 11) | changes in body weight (diet-induced obese mice [3]; before and after 2 weeks low-calorie feed, FIG. 8) |
| --- | --- | --- | --- | --- | --- | --- | --- | --- |
| glucosyl hesperidin | did not show any significant difference | did not show any significant difference | values equivalent to those of the control group | did not show any significant difference | equivalent values |  |  |  |
| Cn1c(=O)c2c(ncn2C)n(C)c1=O [caffeine] | did not show any significant difference | did not show any significant difference | values equivalent to those of the control group | did not show any significant difference | significantly lower values | did not show any significant difference | did not show any significant difference | lower values |
